Reference: patent EP4400100A1, “ANT[…] USE IN THE TREATMENT OF CANCER” (Instituto de Investigación Biomédica de Salamanca De la …, priority 2023, dated 2024)

Assays:
Type in all cases: cell-based
[1] = test system: androgen-treated cancer cell lines (AR+ and AR-); experiment: Cell growth after 7 days of treatment with dihydrotestosterone, enzalutamide and their combination; conditions: for cell growth on androgen stimulation: DHT 10 nM
Description: (§1) • Figure 1. […] Study of cell proliferation by MTT assay in AR+ MCF7, BT474, BT549 and HS 578T lines and in AR-HCC1937, HCC1569 and MDA-MB-231 lines at 24, 48 and 72 hours after enzalutamide treatment. Error bars are not shown when smaller than the symbol size. IC50 (best fit and 95% confidence interval) shown below. • Figure 2. […] Cell viability study by Annexin V/propidium iodide labelling in AR+ MCF7, BT474, BT549 and HS 578T lines and in AR- HCC1937, HCC1569 and MDA-MB-231 lines after 72 hours of enzalutamide treatment. Error bars represent SD. Significance between C- and different conditions shown without brackets (^∗p < 0.05, ^∗∗p < 0.01, ★p<0.001). • Figure 3. A) Effect of […] dihydrotestosterone, 10 µM enzalutamide and their combination on the indicated cell lines after 7 days of treatment. Data are the average of three independent experiments. Error bars represent SD. Statistically significant differences between C- and different conditions are shown without brackets (*p < 0.05, **p < 0.01, *p<0.001). […] Study of cell proliferation by MTT assay in the AR+ LN18 line and in the AR- SKOV-3 and CAL33 lines at 24, 48 and 72 hours after treatment with enzalutamide.
To assess whether the effect of enzalutamide is androgen-independent, we tested the effect of enzalutamide on androgen-treated cancer cell lines. We studied the effects of dihydrotestosterone (DHT) (10 nM), enzalutamide (10 µM) and their combination on the different lines (Figure 3A).

[2] = test system: AR+ MCF7, BT474, BT549 and HS 578T lines and AR- HCC1937, HCC1569 and MDA-MB-231 lines; experiment: Cell proliferation by MTT assay in breast cancer cell lines
Description: as §1

[3] = test system: AR+ MCF7, BT474, BT549 and HS 578T lines and AR- HCC1937, HCC1569 and MDA-MB-231 lines; experiment: Apoptosis / cell viability by Annexin V/propidium iodide labelling and flow cytometry in breast cancer cell lines; conditions: varying concentrations, 72 hours, independent of receptor status
Description: as §1

[4] = test system: AR+ LN18 line and AR- SKOV-3 and CAL33 lines; experiment: Cell proliferation by MTT assay in ovarian, glioblastoma and head and neck cancer cell lines; conditions: SKOV-3 (AR-), 24, 48 and 72 hours, preliminary results
Description: as §1

| SMILES | cell growth on androgen stimulation ([1]; BT474 (AR+) and AR- lines) | cell growth on androgen stimulation ([1]; HS 578 T, followed by BT549 and MCF7 (AR+)) | cell growth inhibition, ranking of cell lines ([2]; MDA-MB-231 (AR-) line, 24, 48 or 72 hours, followed by HCC1569 (AR-), BT474 (AR+) and BT549 (AR+)) | cell proliferation ([2]; all breast cancer cell lines tested (AR+ and AR-), 24, 48 and 72 hours of treatment, higher efficacy at 72 hours) | apoptosis [3] | inhibition of proliferation ([1]; enzalutamide 10 µM alone) | inhibition of cell proliferation ([1]; enzalutamide 10 µM combined with DHT 10 nM, AR+ and AR- cells) | proliferation [4] |
| --- | --- | --- | --- | --- | --- | --- | --- | --- |
| C[C@]12CCC(=O)C[C@@H]1CC[C@@H]1[C@@H]2CC[C@]2(C)[C@@H](O)CC[C@@H]12 [dihydrotestosterone] | No significant differences | highest increase in cell growth |  |  |  |  |  |  |
| CNC(=O)c1ccc(N2C(=S)N(c3ccc(C#N)c(C(F)(F)F)c3)C(=O)C2(C)C)cc1F [enzalutamide] |  |  | the most affected | inhibited cell proliferation in a dose- and time-dependent manner in all cell lines tested | induced apoptosis in a dose-dependent manner | induced a higher inhibition of proliferation than that observed at 72 hours | the inhibition of cell proliferation was less than that of enzalutamide alone | induces an inhibitory effect on proliferation regardless of the androgen receptor status of the tumours |
